The values below are quoted from earlier work in US6358944B1, “Methods and compositions for treating generalized anxiety disorder” (Vela Pharmaceuticals, Inc., priority 1999, dated 2002).

Take `CN(C)CCC=C1c2ccccc2C=Cc2ccccc21` [cyclobenzaprine, 3-(5H-Dibenzo[a,d]cyclohepten-5-ylidene)-N,N-dimethyl-1-propanamine]: where the note is “cyclobenzaprine treatment”, the “other less common side effects” value is “nausea, tiredness, constipation, blurred vision, nervousness, confusion, abdominal pain and discomfort”; the principal side effects entry is “drowsiness, dry mouth or tongue, dizziness and bad taste”. Also, the organ toxicity result (cyclobenzaprine-treated patients at recommended doses) was “No indications of organ toxicity were found”. Moreover, the “toxic effects after overdose” value (three individuals who ingested between 260 to 900 mg) is listed as “Toxic effects were reported”.
